Where a SMILES comes first, the peptide text is derived from it. [ ]: non-standard residue; d: D form. The star is where a group is joined. ξ: configuration not given here. Palmitoyl = CCCCCCCCCCCCCCCC(=O)*; ξF = NC(Cc1ccccc1)C(=O)O
What was measured:
[1] = DLS particle size and zeta potential of nanoparticles; format: physicochemical; settings: zeta sizer, 25° C.
Procedure: First, FG and FH nanoparticle solutions with a concentration of 20 μM were prepared as follows. 0.01 mmol of FG (or FH) was weighed and dissolved in 1 mL of DMSO solution, and then diluted into 5 folds to a concentration of 2 mM, thus obtaining mother solution A. 10 μL of mother solution A was quickly added to 1 mL of water, and the resulting solution was then vortexed for 30 s to obtain a nanoparticle solution. Second, samples were made. 10 ul of FG (or FH) solution was added dropwise onto a copper mesh for 5 min, and the excess solution was removed with filter paper. 10 μL of uranyl acetate stain was added dropwise for 5 min, and the excess stain was removed with filter paper. Washing with 10 μl of deionized water was carried out once. The samples were dried in vacuum overnight. Finally, transmission electron microscopy observations were performed on an HT-7700 transmission electron microscope (Hitachi, Tokyo, Japan). Scale bar was 200 nm.
The particle size and zeta potential of FH and FG nanoparticles were measured with a zeta sizer (Nano ZZ90, Malvern, UK) at 25° C.

[2] = test system: primary mouse brain microvascular endothelial cells; assay: Endothelial cell migration (transwell experiment); format: cell-based; settings: 20 μM, 24 h; for sSema4D-induced endothelial cell migration: sSema4D 1600 ng/mL
Procedure: The primary mouse brain microvascular endothelial cells were starved with 0.5% ECM for 4 to 6 h. The mouse brain microvascular endothelial cells were seeded in the upper layer of a 24-well transwell chamber (8 μm). 1% ECM medium containing FH (20 μM), FG (20 μM), and Sema4D neutralizing antibody (BMA-12) (2 μg/μL) (the concentration of sSema4D in the medium is 1600 ng/mL) was added to the lower chamber, and an equal volume of DMSO was added as control. The cells were incubated in a 5% CO2 incubator at 37° C. for 24 h. 24 h later, the cells on the bottom of the chamber were fixed with 4% paraformaldehyde and stained with crystal violet, and the endothelial cells that penetrated to the bottom of the chamber were counted under a microscope.

sSema4D = molecular target: T1, sSema4D (Mus musculus, UniProt O09126); assay: ELISA of sSema4D in vitreous humor after eye drops; format: in vivo; parameters: release and collect the vitreous humor; from tissue; host or cells: vitreous humor of C57 mice; settings: C57 mice, 10 μL of 20 μM eye drops, morning and evening, 3 days
T1 sequence (O09126 24-733 limits assumed): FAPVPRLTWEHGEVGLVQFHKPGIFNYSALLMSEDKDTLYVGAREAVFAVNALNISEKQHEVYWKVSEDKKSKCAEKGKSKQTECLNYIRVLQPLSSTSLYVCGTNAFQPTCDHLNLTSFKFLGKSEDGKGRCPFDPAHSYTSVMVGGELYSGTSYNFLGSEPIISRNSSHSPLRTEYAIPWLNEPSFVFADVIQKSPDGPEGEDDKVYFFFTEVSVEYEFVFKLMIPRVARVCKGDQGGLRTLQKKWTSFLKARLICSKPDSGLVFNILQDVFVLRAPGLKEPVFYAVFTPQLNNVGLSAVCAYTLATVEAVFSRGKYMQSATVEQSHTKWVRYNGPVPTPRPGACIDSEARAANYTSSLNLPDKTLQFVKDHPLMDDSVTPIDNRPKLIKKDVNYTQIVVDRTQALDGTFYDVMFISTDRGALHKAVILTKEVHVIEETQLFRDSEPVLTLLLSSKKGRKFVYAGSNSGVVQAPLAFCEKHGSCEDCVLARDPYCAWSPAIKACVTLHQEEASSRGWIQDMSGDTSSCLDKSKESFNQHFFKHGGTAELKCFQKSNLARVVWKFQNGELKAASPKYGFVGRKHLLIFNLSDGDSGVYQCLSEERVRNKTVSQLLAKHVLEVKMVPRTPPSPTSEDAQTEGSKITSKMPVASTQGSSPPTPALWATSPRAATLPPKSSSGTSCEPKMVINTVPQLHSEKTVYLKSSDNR
Excerpt: In this example, 8-week-old C57 male mice were used, with ten data points in each group, and each data point was the average of the experimental results of 5 mice.
The water on the eyeballs was then removed with filter paper to release and collect the vitreous humor. ELISA kit (Shanghai Yuanmu Biotechnology Co., Ltd.) was used to detect the expression of sSema4D protein in vitreous humor.
Control group was instilled with the same volume of PBS solution; vehicle group was instilled the same volume of artificial tears (Systane).

OIR model mice = assay: Fundus angiogenesis in OIR model, Isolectin B4 confocal detection; format: in vivo, mouse; settings: for percentage of abnormal blood vessels in the total retinal area (proportion of new blood vessels): 2 nmol injected into the vitreous on day 12, read on day 17
Procedure: Treatment group (OIR): After giving birth, 3-4 month old C57BL/6 mother mice were placed in an oxygen chamber with 75% oxygen together with 7 day old young mice, and the young mice and the mother mice were taken out on the 12th day of birth of the young mice. Immediately after the young mice were anesthetized, 2 nmol of FH, 2 nmol of FG, and 1 μg of Sema4D neutralizing antibody (BMA-12) (BMA-12, i.e., anti-Sema4D) were injected into the vitreous, and an equal volume of DMSO was used as a control. The young mice were then further raised in normal air for 5 days; the young mice were anesthetized on the 17th day of birth, and after cardiac perfusion with normal saline, the eyeballs were separated and then fixed, stained with Isolectin B4 overnight at 4° C., flatly spread on a glass slide, and photographed.
Control group (Normal): Young mice, grown with normoxia, were anesthetized on the 17th day of birth. After cardiac perfusion with normal saline, the eyeballs were taken out, and the retinas were peeled off and then fixed with 4% paraformaldehyde, stained with Isolectin B4 at 4° C. overnight, flatly spread on a glass slide, and photographed.
The results are shown in A in FIGS. 4A and 4B. Laser confocal was carried out to detect retinal angiogenesis, and ImageJ was carried out to calculate the ratio of retinal neovascularization clusters to the entire retinal area, that is, the proportion of new blood vessels. […] It can be seen from FIG. 4A that the treatment effect of FH is the best.

[3] = test system: mouse brain microvascular endothelial cells; assay: Endothelial cell leakage (transmembrane resistance); format: cell-based; settings: 20 μM, 36 h; for sSema4D-induced endothelial cell leakage: sSema4D 1600 ng/mL
Procedure: A layer of fibronectin was first applied to coat the upper layer of a 24-well transwell chamber (0.4 um) and incubated at room temperature for 1 h; after coating, the mouse brain microvascular endothelial cells were seeded, and cultured for 5 days until the cells were full, and then FH (20 μM), FG (20 μM), and Sema4D neutralizing antibody (BMA-12) (2 μg/μL) were added to the medium (the concentration of sSema4D in the medium was 1600 ng/mL), respectively. An equal volume of DMSO was added as a control, and ECM was used as a blank control. After incubation for 36 h, the resistance value was measured by a cell transmembrane resistance measuring instrument.

charge (zeta potential) [1] | particle diameter [1] [nm] | SMILES | inhibition of endothelial cell migration compared with Sema4D neutralizing antibody (BMA-12, 2 μg/μL) [2] | sSema4D-induced endothelial cell migration [2] | expression of sSema4D protein in the vitreous humor (sSema4D) | percentage of abnormal blood vessels in the total retinal area (proportion of new blood vessels) (OIR model mice) | treatment effect on fundus angiogenesis compared with Sema4D neutralizing antibody (BMA-12, 1 μg) (OIR model mice; 2 nmol intravitreal) | treatment effect on fundus angiogenesis, ranking among treatments (FIG. 4A) (OIR model mice; 2 nmol intravitreal) | effect on endothelial cell leakage compared with Sema4D neutralizing antibody (BMA-12, 2 μg/μL) [3] | sSema4D-induced endothelial cell leakage [3]
+40.4 mV | 54.43±2.8 | CCCCCCCCCCCCCCCC(=O)NC(Cc1ccccc1)C(=O)N[C@@H](Cc1ccccc1)C(=O)N[C@H](C(=O)N[C@@H](CC(C)C)C(=O)N[C@@H](CCCCN)C(=O)N[C@@H](CCCCN)C(=O)N[C@@H](CCC(N)=O)C(=O)N[C@@H](CCCCN)C(=O)N[C@@H](CCCNC(=N)N)C(=O)N1CCC[C@H]1C(=O)N[C@@H](CCCNC(=N)N)C(=O)N[C@@H](Cc1c[nH]cn1)C(=O)O)C(C)C (stereo in doubt) [FH, hexadecanoyl-FFVLK-KQKRPRH] | more effective | significantly inhibit | reduce the expression of sSema4D protein in the vitreous humor | reduce the percentage of abnormal blood vessels in the total retinal area | comparable | the best | comparable | significantly inhibit
+44.8 mV | 57.67±2.6 | CCCCCCCCCCCCCCCC(=O)NC(Cc1ccccc1)C(=O)N[C@@H](Cc1ccccc1)C(=O)N[C@H](C(=O)N[C@@H](CC(C)C)C(=O)N[C@@H](CCCCN)C(=O)N[C@@H](CCCCN)C(=O)N[C@@H](CC(N)=O)C(=O)N[C@@H](CCCCN)C(=O)N[C@@H](C)C(=O)N[C@@H](C)C(=O)N[C@@H](CCCCN)C(=O)NCC(=O)O)C(C)C (stereo partly shown) [FG] (Palmitoyl-[ξF]FVLKKNKAAKG-OH) | more effective | significantly inhibit | reduce the expression of sSema4D protein in the vitreous humor | reduce the percentage of abnormal blood vessels in the total retinal area | comparable | – | comparable | significantly inhibit
